Where two headings read alike, the source gives them in different places.

Broadly, the IC50 is the concentration that inhibits the measured activity by half.

The test system of assay [1] is human multiple myeloma cell line, OPM-2. The experiment in a line: Cell viability assay (OPM-2 10 FBS), CellTiter-Glo. It counts as cell-based. In a few lines:
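OPM-2 cells at 3000 cells/well in RPMI 1640 with 10% FBS were exposed to serially diluted compounds for 16 h at 37 °C, 5% CO2.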
On the technique in general: In ATP-based viability assays light output follows the ATP content of the culture.

For assay [2], the target named is recombinant human Mcl-1 (residues 171-327) / Bim interaction (Homo sapiens (Human), UniProt Q07820). The experiment in a line: biochemical. The note with it: read-out: Mcl-1 HTRF IC50. It counts as binding.
[3] abbreviates: Homo sapiens, OPM-2, 16 h, read-out: OPM-2 10% FBS IC50 IP, OPM-2 cells, 10% FBS, 16 h incubation.
Where [4] appears, read: 0.1 nM Mcl-1(171-327), 0.05 nM biotin-Bim (51-76).
Setting [5] is: Homo sapiens, OPM-2, 16 h, read-out: OPM-2 10% FBS IC50 IP, OPM-2 cells, 10% FBS, 16 h, CellTiter-Glo.
Where [6] appears, read: TR-FRET, Mcl-1(171-327) / biotin-Bim (51-76).
[7] abbreviates: read-out: OPM-2 10% FBS IC50 IP, OPM-2 cells, 10% FBS, 16 h, CellTiter-Glo.

Chain of recombinant human Mcl-1 (residues 171-327) / Bim interaction (Q07820 171-327): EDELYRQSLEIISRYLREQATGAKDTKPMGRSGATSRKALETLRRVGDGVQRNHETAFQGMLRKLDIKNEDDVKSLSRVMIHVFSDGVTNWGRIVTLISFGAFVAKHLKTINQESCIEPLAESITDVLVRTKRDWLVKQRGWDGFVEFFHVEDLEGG

For the compound `C[C@@H]1[C@@H](C)C/C=C/[C@@](CN2CCN3CCCC[C@@H]3C2)(OCC2CC2)[C@@H]2CC[C@H]2CN2C[C@@]3(CCCc4cc(Cl)ccc43)COc3ccc(cc32)C(=O)NS1(=O)=O` [Example 155, (1S,3′R,6′R,7′R,8′E,11′S,12′R)-6-chloro-7′-(cyclopropylmethoxy)-11′,12′-dimethyl-7′-((9aR)-octahydro-2H-pyrido[1,2-a]pyrazin-2-ylmethyl)-3,4-dihydro-2H,15′H-spiro[naphthalene-1,22′-[20]oxa[13]thia[1,14]diazatetracyclo [14.7.2.0~3,6~.0~19,24~]pentacosa[8,16,18,24]tetraen]-15′-one 13′,13′-dioxide], the IC50 in assay [1] (setting [3]) came to 378 nM; in assay [2] (setting [4]), 0.228 nM.
For `CO[C@@]1(CN2CCN(CCC#N)CC2)/C=C/C[C@H](C)[C@@H](C)S(=O)(=O)NC(=O)c2ccc3c(c2)N(C[C@@H]2CC[C@H]21)C[C@@]1(CCCc2cc(Cl)ccc21)CO3` [Example 318, 3-(4-(((1S,3′R,6′R,7′S,8′E,11′S, 12′R)-6-chloro-7′-methoxy-11′,12′-dimethyl-13′,13′-dioxido-15′-oxo-3,4-dihydro-2H-spiro[naphthalene-1,22′-[20]oxa[13]thia[1,14]diazatetracyclo [14.7.2.0~3,6~.0~19,24~]pentacosa[8,16,18,24]tetraen]-7′-yl)methyl)-1-piperazinyl)propanenitrile] the same measures were 77 nM and 0.138 nM.
Regarding `CO[C@@]1(CN2CCc3ccccc3C2)/C=C/C[C@H](C)[C@@H](C)S(=O)(=O)NC(=O)c2ccc3c(c2)N(C[C@@H]2CC[C@H]21)C[C@@]1(CCCc2cc(Cl)ccc21)CO3` [Example 148, (1S,3′R,6′R,7′S,8′E,11′S,12′R)-6-chloro-7′-(3,4-dihydro-2(1H)-isoquinolinylmethyl)-7′-methoxy-11′,12′-dimethyl-3,4-dihydro-2H,15′H-spiro[naphthalene-1,22′-[20]oxa[13]thia[1,14]diazatetracyclo [14.7.2.0~3,6~.0~19,24~]pentacosa[8,16,18,24]tetraen]-15′-one 13′,13′-dioxide], the IC50 in assay [1] (setting [3]) stood at 1610 nM; in assay [2] (setting [4]), 1.2 nM.
With `COC[C@@H](C)N(C)C(=O)C[C@]1(OC)/C=C/C[C@H](C)[C@@H](C)S(=O)(=O)NC(=O)c2ccc3c(c2)N(C[C@@H]2CC[C@H]21)C[C@@]1(CCCc2cc(Cl)ccc21)CO3` [Example 100451, 2-((1S,3′R,6′R,7′S,8′E,11′S,12′R)-6-chloro-7′-methoxy-11′,12′-dimethyl-13′,13′-dioxido-15′-oxo-3,4-dihydro-2H-spiro[naphthalene-1,22′-[20]oxa[13]thia[1,14]diazatetracyclo [14.7.2.0~3,6~.0~19,24~]pentacosa[8,16,18,24]tetraen]-7′-yl)-N-((2R)-1-methoxy-2-propanyl)-N-methylacetamide], the IC50 in assay [1] (setting [5]) was determined as 412 nM; in assay [2] (setting [6]), 0.111 nM.
For `CO[C@@]1(CC(=O)O)/C=C/C[C@H](C)[C@@H](C)S(=O)(=O)NC(=O)c2ccc3c(c2)N(C[C@@H]2CC[C@H]21)C[C@@]1(CCCc2cc(Cl)ccc21)CO3` [Example 100307, ((1S,3′R,6′R,7′S,8′E,11′S,12′R)-6-chloro-7′-methoxy-11′,12′-dimethyl-13′,13′-dioxido-15′-oxo-3,4-dihydro-2H-spiro[naphthalene-1,22′-[20]oxa[13]thia[1,14]diazatetracyclo [14.7.2.0~3,6~.0~19,24~]pentacosa[8,16,18,24]tetraen]-7′-yl)acetic acid] the same measures were 1030 nM and 0.049 nM.
The like results for `CO[C@@]1(Cc2nc(CN3CCOCC3)c(C)o2)/C=C/C[C@H](C)[C@@H](C)S(=O)(=O)NC(=O)c2ccc3c(c2)N(C[C@@H]2CC[C@H]21)C[C@@]1(CCCc2cc(Cl)ccc21)CO3` [Example 100587, (1S,3′R,6′R,7′S,8′E,11′S,12′R)-6-chloro-7′-methoxy-11′,12′-dimethyl-7′-((5-methyl-4-(4-morpholinylmethyl)-1,3-oxazol-2-yl)methyl)-3,4-dihydro-2H,15′H-spiro[naphthalene-1,22′-[20]oxa[13]thia[1,14]diazatetracyclo [14.7.2.0~3,6~.0~19,24~]pentacosa[8,16,18,24]tetraen]-15′-one 13′,13′-dioxide] were, in that order, 177 nM and 0.136 nM.
`CO[C@@]1(CN2CCN(C3(C)COC3)CC2)/C=C/C[C@H](C)[C@@H](C)S(=O)(=O)NC(=O)c2ccc3c(c2)N(C[C@@H]2CC[C@H]21)C[C@@]1(CCCc2cc(Cl)ccc21)CO3` [Example 268, (1S,3′R,6′R,7′S,8′E,11′S,12′R)-6-chloro-7′-methoxy-11′,12′-dimethyl-7′-((4-(3-methyl-3-oxetanyl)-1-piperazinyl)methyl)-3,4-dihydro-2H,15′H-spiro[naphthalene-1,22′-[20]oxa[13]thia[1,14]diazatetracyclo [14.7.2.0~3,6~.0~19,24~]pentacosa[8,16,18,24]tetraen]-15′-one 13′,13′-dioxide]: the IC50 in assay [1] (setting [3]) is 72 nM; in assay [2] (setting [4]) it was 0.065 nM.
With `COCC[C@]1(OC)/C=C/C[C@H](C)[C@@H](C)S(=O)(=O)NC(=O)c2ccc3c(c2)N(C[C@@H]2CC[C@H]21)C[C@@]1(CCCc2cc(Cl)ccc21)CO3` [Example 100369, (1S,3′R,6′R,7′S,8′E,11′S,12′R)-6-chloro-7′-methoxy-7′-(2-methoxyethyl)-11′,12′-dimethyl-3,4-dihydro-2H,15′H-spiro[naphthalene-1,22′-[20]oxa[13]thia[1,14]diazatetracyclo [14.7.2.0~3,6~.0~19,24~]pentacosa[8,16,18,24]tetraen]-15′-one 13′,13′-dioxide], the IC50 stood at 9920 nM in assay [1] (setting [5]) and 2.83 nM in assay [2] (setting [6]).
The like results for `C[C@@H]1[C@@H](C)CCC[C@](C)(CN2CCOCC2)[C@@H]2CC[C@H]2CN2C[C@@]3(CCCc4cc(Cl)ccc43)COc3ccc(cc32)C(=O)NS1(=O)=O` [Example 100302, (1S,3′R,6′R,7′S,11′S,12′R)-6-chloro-7′,11′,12′-trimethyl-7′-(4-morpholinylmethyl)-3,4-dihydro-2H,15′H-spiro[naphthalene-1,22′-[20]oxa[13]thia[1,14]diazatetracyclo [14.7.2.0~3,6~.0~19,24~]pentacosa[16,18,24]trien]-15′-one 13′,13′-dioxide] were, in that order, 4880 nM and 3.8 nM.
As for `CO[C@@]1(C[C@@H](O)C2CC2)/C=C/C[C@H](C)[C@@H](C)S(=O)(=O)NC(=O)c2ccc3c(c2)N(C[C@@H]2CC[C@H]21)C[C@@]1(CCCc2cc(Cl)ccc21)CO3` (single isomer, unassigned) [Example 100461], the IC50 in assay [1] (setting [7]) is 382 nM; in assay [2] (setting [6]), 0.042 nM.
Turning to `C[C@@H]1[C@@H](C)C/C=C/[C@@](O)(c2ccccn2)[C@@H]2CC[C@H]2CN2C[C@@]3(CCCc4cc(Cl)ccc43)COc3ccc(cc32)C(=O)NS1(=O)=O` (single isomer, unassigned) [Example 100181], the values for the IC50 in assay [1] (setting [5]) and in assay [2] (setting [6]) were 226 nM and 0.537 nM, respectively.
For the compound `CO[C@@]1(CN2CCc3nocc3C2)/C=C/C[C@H](C)[C@@H](C)S(=O)(=O)NC(=O)c2ccc3c(c2)N(C[C@@H]2CC[C@H]21)C[C@@]1(CCCc2cc(Cl)ccc21)CO3` [Example 200], the IC50 came to 583 nM in assay [1] (setting [3]) and 0.315 nM in assay [2] (setting [4]).
As for `CO[C@@]1(Cc2nc(C)co2)/C=C/C[C@H](C)[C@@H](C)S(=O)(=O)NC(=O)c2ccc3c(c2)N(C[C@@H]2CC[C@H]21)C[C@@]1(CCCc2cc(Cl)ccc21)CO3` [Example 100527, (1S,3′R,6′R,7′S,8′E,11′S,12′R)-6-chloro-7′-methoxy-11′,12′-dimethyl-7′-((4-methyl-1,3-oxazol-2-yl)methyl)-3,4-dihydro-2H,15′H-spiro[naphthalene-1,22′-[20]oxa[13]thia[1,14]diazatetracyclo [14.7.2.0~3,6~.0~19,24~]pentacosa[8,16,18,24]tetraen]-15′-one 13′,13′-dioxide], the IC50 was determined as 3570 nM in assay [1] (setting [5]) and 3.6 nM in assay [2] (setting [6]).
Consider `CO[C@]1(C)CCC[C@H](C)[C@@H](C)S(=O)(=O)NC(=O)c2ccc3c(c2)N(C[C@@H]2CC[C@H]21)C[C@@]1(CCCc2cc(Cl)ccc21)CO3` (single isomer, unassigned) [Example 100212], for which the results for the IC50 in assay [1] (setting [7]) and in assay [2] (setting [6]) were 1620 nM and 0.901 nM, respectively.
For the compound `CO[C@]1(CN2C[C@H]3CN(C)C[C@H]3C2)/C=C/C[C@H](C)[C@@H](C)S(=O)(=O)NC(=O)c2ccc3c(c2)N(C[C@@H]2CC[C@H]21)C[C@@]1(CCCc2cc(Cl)ccc21)CO3` [Example 82], the IC50 in assay [1] (setting [3]) was 520 nM; in assay [2] (setting [4]), 0.394 nM.
Consider `C[C@@H]1[C@@H](C)C/C=C/[C@@](O)(COCCN2CCOCC2)[C@@H]2CC[C@H]2CN2C[C@@]3(CCCc4cc(Cl)ccc43)COc3ccc(cc32)C(=O)NS1(=O)=O` [Example 100355, (1S,3′R,6′R,7′S,8′E,11′S,12′R)-6-chloro-7′-hydroxy-11′,12′-dimethyl-7′-((2-(4-morpholinyl)ethoxy)methyl)-3,4-dihydro-2H,15′H-spiro[naphthalene-1,22′-[20]oxa[13]thia[1,14]diazatetracyclo [14.7.2.0~3,6~.0~19,24~]pentacosa[8,16,18,24]tetraen]-15′-one 13′,13′-dioxide], for which the IC50 in assay [1] (setting [5]) is 776 nM; in assay [2] (setting [6]), 0.535 nM.
Take `CCO[C@]1(CN2CCN3CCS(=O)(=O)C[C@@H]3C2)/C=C/C[C@H](C)[C@@H](C)S(=O)(=O)NC(=O)c2ccc3c(c2)N(C[C@@H]2CC[C@H]21)C[C@@]1(CCCc2cc(Cl)ccc21)CO3` [Example 121]: the IC50 in assay [1] (read-out: OPM-2 10% FBS IC50 IP, OPM-2 cells, 10% FBS, 16 h incubation) came to 120 nM; in assay [2] (setting [4]), 0.084 nM.

These data come from patent US10821115B2, “Compounds that inhibit Mcl-1 protein” (priority 2017, dated 2020).
